Where two headings read alike, the source gives them in different places.
Assays:
hα4 and β1 integrins = molecular target: T1, hα4 and β1 integrins (Homo sapiens, UniProt P05556+P13612); assay: In vitro inhibition of binding between CHO cells expressing hα4 and β1 integrins and Eu3+-hVCAM-1 D1D7-IgG; details: for Ki: CHO cells expressing hα4 and β1 integrins, Eu3+-hVCAM-1 D1D7-IgG ligand, without HSA; for IC50: in the presence of 3% human serum albumin (HSA final concentration 3%)
T1 construct: expressed in transfected cells; host or cells: CHO cells
T1 sequence (P13612 34-1032): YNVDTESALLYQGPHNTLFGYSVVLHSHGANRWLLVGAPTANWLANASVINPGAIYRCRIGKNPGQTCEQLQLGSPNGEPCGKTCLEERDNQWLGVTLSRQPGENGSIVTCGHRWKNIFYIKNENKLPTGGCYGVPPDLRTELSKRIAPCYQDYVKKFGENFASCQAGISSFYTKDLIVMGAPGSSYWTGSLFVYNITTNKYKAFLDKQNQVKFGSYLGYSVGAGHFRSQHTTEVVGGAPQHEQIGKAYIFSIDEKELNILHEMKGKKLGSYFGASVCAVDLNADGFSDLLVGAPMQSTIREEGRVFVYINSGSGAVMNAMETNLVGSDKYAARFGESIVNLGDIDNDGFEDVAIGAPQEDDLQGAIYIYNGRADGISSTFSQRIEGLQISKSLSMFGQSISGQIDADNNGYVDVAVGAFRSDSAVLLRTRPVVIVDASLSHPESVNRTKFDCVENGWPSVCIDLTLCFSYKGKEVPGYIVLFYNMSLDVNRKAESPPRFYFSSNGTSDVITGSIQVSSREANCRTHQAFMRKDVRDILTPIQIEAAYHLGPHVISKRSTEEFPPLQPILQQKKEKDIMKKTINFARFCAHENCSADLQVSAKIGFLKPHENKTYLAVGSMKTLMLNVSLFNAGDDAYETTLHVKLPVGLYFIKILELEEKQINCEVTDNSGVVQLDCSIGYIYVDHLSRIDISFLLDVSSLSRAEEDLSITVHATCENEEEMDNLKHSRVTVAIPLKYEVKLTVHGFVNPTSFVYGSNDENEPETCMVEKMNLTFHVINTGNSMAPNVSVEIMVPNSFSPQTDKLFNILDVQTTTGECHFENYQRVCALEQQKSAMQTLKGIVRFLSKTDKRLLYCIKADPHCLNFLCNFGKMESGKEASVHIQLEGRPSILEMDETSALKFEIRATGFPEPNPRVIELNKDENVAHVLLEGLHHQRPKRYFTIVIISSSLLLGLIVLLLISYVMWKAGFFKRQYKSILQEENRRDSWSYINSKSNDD
T1 sequence (P05556 21-798): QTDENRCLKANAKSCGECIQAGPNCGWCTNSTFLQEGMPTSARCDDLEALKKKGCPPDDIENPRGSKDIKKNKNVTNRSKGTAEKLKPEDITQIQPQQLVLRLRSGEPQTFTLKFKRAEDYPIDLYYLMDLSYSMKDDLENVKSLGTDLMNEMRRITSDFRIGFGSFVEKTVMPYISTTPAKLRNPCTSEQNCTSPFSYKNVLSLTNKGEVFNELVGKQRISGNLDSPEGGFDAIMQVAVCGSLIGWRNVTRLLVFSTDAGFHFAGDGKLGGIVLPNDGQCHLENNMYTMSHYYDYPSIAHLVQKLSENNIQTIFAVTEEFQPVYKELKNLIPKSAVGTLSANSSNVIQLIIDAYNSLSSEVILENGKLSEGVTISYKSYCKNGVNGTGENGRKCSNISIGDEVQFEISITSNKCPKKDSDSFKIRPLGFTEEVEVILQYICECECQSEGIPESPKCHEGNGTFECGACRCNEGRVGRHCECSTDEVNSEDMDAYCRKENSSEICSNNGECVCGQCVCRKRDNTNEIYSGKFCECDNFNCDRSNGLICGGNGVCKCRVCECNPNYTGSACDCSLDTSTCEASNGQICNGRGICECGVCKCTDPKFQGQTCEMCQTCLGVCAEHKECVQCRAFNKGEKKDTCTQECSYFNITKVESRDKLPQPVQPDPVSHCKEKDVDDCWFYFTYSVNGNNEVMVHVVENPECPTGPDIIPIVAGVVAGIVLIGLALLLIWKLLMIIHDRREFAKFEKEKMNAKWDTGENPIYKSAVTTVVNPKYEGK
Outline: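 Transfected CHO cells, cultured 2 days, were incubated with compound and Eu³⁺-hVCAM-1 D1D7-IgG (diluted to 2 nM) for 1 h at room temperature. Buffer was 25 mM HEPES pH 7.5 with 1 mM Ca²⁺, 1 mM Mg²⁺, 4 mM Mn²⁺ and 0.1% BSA, ±3% HSA final. Cells were washed at 4 °C and read by DELFIA time-resolved fluorescence; Ki was derived from IC50 using the Scatchard Kd.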

[1] = for Solubility, First liquid of Japanese Pharmacopoeia: pH 1.2; for Solubility, Second liquid of Japanese Pharmacopoeia: pH 6.8
Method: (§2) The solubilities of the substance under test in the first liquid (JP1, pH=1.2) of the Japanese Pharmacopoeia and the second liquid (JP2, pH=6.8) of the Japanese Pharmacopoeia, were evaluated.

[2] = Test for pharmacokinetics and oral absorbability in monkeys; format: in vivo; details: orally 0.5 mg/kg, single agent; for AUC (ng · h/ml): total area under the plasma concentration versus time curve: LC/MS/MS
Method: The pharmacokinetic parameters in the case of orally administering (0.5 mg/kg, single agent) the substance under test to monkeys, were as follows.

[3] = Solubility test in first and second liquid of the Japanese Pharmacopoeia
Method: as §2

[4] = system: eosinophile infiltration in mice actively sensitized with ascaris; assay: Test for eosinophile infiltration in mice actively sensitized with ascaris, administered two times a day; format: in vivo; details: orally 5 mg/kg two times a day; for inhibition in vivo at 5 mg/kg: Mus musculus, po, eosinophile count in BALF 48 hours after sensitization vs ascaris-sensitized group, read-out: suppression rate (%); for Average total eosinophile count (×10^5) of (ascaris-sensitized + substance under test) group: BALF 48 hours after sensitization
Method: (§1) Test for eosinophile infiltration in mice actively sensitized with ascaris (antigen to pig roundworm):
It has been reported that infiltration of eosinophilic cells is induced by active sensitization with ascaris {Int. Arch. Immuno., 108, 11-18 (1995)}. An evaluation of the compounds under test was performed according to the evaluation method described herein. The substance under test was orally administered in an amount of 5 mg/kg, two times a day. The total cell count and the eosinophile count in BALF of 48 hours after sensitization were calculated, and the effects were determined by comparing with the group not administered with the substance under test.

[5] = system: eosinophile infiltration in mice actively sensitized with ascaris; assay: Test for eosinophile infiltration in mice actively sensitized with ascaris, once-a-day administration; format: in vivo
Method: as §1
In the same manner as in Evaluation Example 2, the substances under test were orally administered once a day, in an amount of 5 mg/kg for compound A (representative compound of WO 02/053534) and the compound of Example 58, and in an amount of 0.8 mg/kg of the compound of Example 161, and an evaluation was performed in the same manner as in Evaluation Example 2.

Row | SMILES | Ki (hα4 and β1 integrins) [nM] | IC50 (hα4 and β1 integrins) [nM] | Solubility, First liquid of Japanese Pharmacopoeia [1] [µg/mL] | Solubility, Second liquid of Japanese Pharmacopoeia [1] [µg/mL] | Cltot (mL/min/kg): apparent plasma clearance [2] [mL/min/kg] | AUC (ng · h/ml): total area under the plasma concentration versus time curve [2] [ng·h/mL] | solubility ([3]; first liquid of the Japanese Pharmacopoeia (JP1), pH 1.2, simulated gastric fluid, First liquid of Japanese Pharmacopoeia (μg/mL), JP1, pH=1.2) [µg/mL] | solubility ([3]; second liquid of the Japanese Pharmacopoeia (JP2), pH 6.8, aqueous buffer, Second liquid of Japanese Pharmacopoeia (μg/mL), JP2, pH=6.8) [µg/mL] | Solubility, First liquid of Japanese Pharmacopoeia ([3]; JP1, pH=1.2) [µg/mL] | Solubility, Second liquid of Japanese Pharmacopoeia ([3]; JP2, pH=6.8) [µg/mL] | inhibition in vivo at 5 mg/kg [4] [%] | Average total eosinophile count (×10^5) of (ascaris-sensitized + substance under test) group [4] | Average total eosinophile count (×10^5) of (ascaris-sensitized + substance under test) group ([5]; orally 0.8 mg/kg once a day) | Average total eosinophile count (×10^5) of (ascaris-sensitized + substance under test) group ([5]; orally 5 mg/kg once a day)
1 | COC1CN([C@H]2C[C@@H](CO[C@H]3CC[C@H](C(=O)O)CC3)N(C(=O)Cc3cc(Cl)c(NC(=O)c4csc5ccccc45)cc3Cl)C2)C1 (relative stereo) [Example 4, Trans-4-[1-[[4-[(benzo[b]thiophen-3-ylcarbonyl)amino]-2,5-dichlorophenyl]acetyl]-(4S)-(3-methoxyazetidin-1-yl)-(2S)-pyrrolidinylmethoxy]cyclohexanecarboxylic acid] | 0.8 | 19 | >2000 | >2000 | – | – | – | – | – | – | – | – | – | –
2 | COC1CN([C@H]2C[C@@H](CO[C@H]3CC[C@H](C(=O)O)CC3)N(C(=O)Cc3cc(Cl)c(NC(=O)c4cn(C)c5ccccc45)cc3Cl)C2)C1 (relative stereo) [Example 2, Trans-4-[1-[[2,5-dichloro-4-[(1-methyl-1H-indol-3-ylcarbonyl)amino]phenyl]acetyl]-(4S)-(3-methoxyazetidin-1-yl)-(2S)-pyrrolidinylmethoxy]cyclohexanecarboxylic acid] | 2.2 | 17 | – | – | 0.40 | 22185 | – | – | >2000 | >2000 | – | – | – | –
3 | CC1CN([C@H]2C[C@@H](CO[C@H]3CC[C@H](C(=O)O)CC3)N(C(=O)Cc3cc(Cl)c(NC(=O)c4cn(C)c5ccccc45)cc3Cl)C2)C1 [Example 10, Trans-4-[1-[[2,5-dichloro-4-[(1-methyl-1H-indol-3-ylcarbonyl)amino]phenyl]acetyl]-(4S)-(3-methylazetidin-1-yl)-(2S)-pyrrolidinylmethoxy]cyclohexanecarboxylic acid] | 9.5 | 37 | – | – | 0.80 | 10799 | > 2000 | > 2000 | – | – | 44 | 1.73 ×10^5 | – | –
4 | COC1CN([C@H]2C[C@@H](CO[C@H]3CC[C@H](C(=O)O)CC3)N(C(=O)Cc3cc(Cl)c(NC(=O)c4csc5ccccc45)cc3F)C2)C1 (relative stereo) [Example 3, Trans-4-[1-[[4-[(benzo[b]thiophen-3-ylcarbonyl)amino]-5-chloro-2-fluorophenyl]acetyl]-(4S)-(3-methoxyazetidin-1-yl)-(2S)-pyrrolidinylmethoxy]cyclohexanecarboxylic acid] | 0.97 | 11 | – | – | 0.26 | 32510 | – | – | 1848 | 1989 | – | – | – | –
5 | O=C(Nc1cc(F)c(CC(=O)N2C[C@@H](N3CCS(=O)(=O)CC3)C[C@H]2CO[C@H]2CC[C@H](C(=O)O)CC2)cc1Cl)c1coc2ccccc12 [Example 161, Trans-4-[1-[[4-[(benzo[b]furan-3-ylcarbonyl)amino]-5-chloro-2-fluorophenyl]acetyl]-(4S)-(1,1-dioxo-1λ^6-thiomorpholin-4-yl)-(2S)-pyrrolidinylmethoxy]cyclohexanecarboxylic acid] | 1.8 | 8.3 | – | – | – | – | – | – | – | – | – | – | 2.06 ×10^5 | –

Continued, in another order:

Row | Ki (hα4 and β1 integrins) [nM] | IC50 (hα4 and β1 integrins) [nM] | Solubility, First liquid of Japanese Pharmacopoeia [1] [µg/mL] | Solubility, Second liquid of Japanese Pharmacopoeia [1] [µg/mL] | Cltot (mL/min/kg): apparent plasma clearance [2] [mL/min/kg] | AUC (ng · h/ml): total area under the plasma concentration versus time curve [2] [ng·h/mL] | solubility ([3]; first liquid of the Japanese Pharmacopoeia (JP1), pH 1.2, simulated gastric fluid, First liquid of Japanese Pharmacopoeia (μg/mL), JP1, pH=1.2) [µg/mL] | solubility ([3]; second liquid of the Japanese Pharmacopoeia (JP2), pH 6.8, aqueous buffer, Second liquid of Japanese Pharmacopoeia (μg/mL), JP2, pH=6.8) [µg/mL] | SMILES | Solubility, First liquid of Japanese Pharmacopoeia ([3]; JP1, pH=1.2) [µg/mL] | Solubility, Second liquid of Japanese Pharmacopoeia ([3]; JP2, pH=6.8) [µg/mL] | inhibition in vivo at 5 mg/kg [4] [%] | Average total eosinophile count (×10^5) of (ascaris-sensitized + substance under test) group [4] | Average total eosinophile count (×10^5) of (ascaris-sensitized + substance under test) group ([5]; orally 0.8 mg/kg once a day) | Average total eosinophile count (×10^5) of (ascaris-sensitized + substance under test) group ([5]; orally 5 mg/kg once a day)
6 | 1.6 | 5.5 | 1100 | 1300 | – | – | – | – | CO[C@H]1CN([C@H]2C[C@@H](CO[C@H]3CC[C@H](C(=O)O)CC3)N(C(=O)Cc3ccc(NC(=O)c4coc5ccccc45)c(Cl)c3)C2)C[C@H]1OC (relative stereo) [Example 61, Trans-4-[1-[[4-[(benzo[b]furan-3-ylcarbonyl)amino]-3-chlorophenyl]acetyl]-(4S)-(cis-3,4-dimethoxypyrrolidin-1-yl)-(2S)-pyrrolidinylmethoxy]cyclohexanecarboxylic acid] | – | – | – | – | – | –
7 | 1.4 | 12 | 1970 | >2000 | – | – | – | – | COC1CN([C@H]2C[C@@H](CO[C@H]3CC[C@H](C(=O)O)CC3)N(C(=O)Cc3cc(Cl)c(NC(=O)c4coc5ccccc45)cc3F)C2)C1 (relative stereo) [Example 5, Trans-4-[1-[[4-[(benzo[b]furan-3-ylcarbonyl)amino]-5-chloro-2-fluorophenyl]acetyl]-(4S)-(3-methoxyazetidin-1-yl)-(2S)-pyrrolidinylmethoxy]cyclohexanecarboxylic acid] | – | – | – | – | – | –
8 | 1.5 | 9.3 | – | – | 2.0 | 7555 | – | – | CO[C@H]1CN([C@H]2C[C@@H](CO[C@H]3CC[C@H](C(=O)O)CC3)N(C(=O)Cc3cc(Cl)c(NC(=O)c4csc5ccccc45)cc3Cl)C2)C[C@H]1OC [Example 58, Trans-4-[1-[[4-[(benzo[b]thiophen-3-ylcarbonyl)amino]-2,5-dichlorophenyl]acetyl]-(4S)-(cis-3,4-dimethoxypyrrolidin-1-yl)-(2S)-pyrrolidinylmethoxy]cyclohexanecarboxylic acid] | – | – | 63 | 1.63 ×10^5 | – | 1.73 ×10^5

— US8129366B2, “VLA-4 inhibitory drug” (Daiichi Sankyo Company, Limited, priority 2005, dated 2012)
